Test results published in patent US20260273012A1, “Camellia Oleifera Tea Oil Concentrate and Uses Thereof” (Laboratoires Expanscience, priority 2023, published 2026).

How the values were obtained:
Format in all cases: cell-based
[1] = system: interleukin-1 alpha (IL-1 alpha); test: IL-1 alpha produced by normal human keratinocytes under PMA-induced inflammatory stress (ELISA); conditions: Dexamethasone 0.1 μM, PMA 10 μg/ml
Method: (§1) The anti-inflammatory activity of tea oil concentrate (THE) was investigated by assaying interleukin-1 alpha (IL-1 alpha) produced by keratinocytes in response to pro-inflammatory stress induced by PMA (Phorbol-Myristate-Acetate) in a normal human keratinocyte model, in a reconstructed epidermis model subjected to PMA stress, as well as in a reconstructed epidermis model subjected to SDS (Sodium Dodecyl Sulfate) stress.
Normal human keratinocytes were pre-incubated for 24 hours in the presence of 0.001%, 0.005% or 0.01% tea tree oil concentrate or 0.1 μM dexamethasone, an anti-inflammatory reference. The cells were then stimulated by overnight treatment in the presence of 10 μg/mL PMA (Phorbol-Myristate-Acetate).
At the end of treatment, IL-1 alpha produced was quantified by ELISA assay in culture supernatants.
The results were statistically analyzed by one-way analysis of variance (ANOVA), followed by Tukey post-test.

[2] = system: Interleukin-1 alpha; test: IL-1 alpha produced by reconstructed epidermis stimulated by PMA; conditions: Dexamethasone 1 μM systemically; PMA 0.5 μg/mL
Method: as §1
(§2) Reconstructed epidermis were treated topically with a formulation (cream) containing 1% tea tree oil concentrate or its placebo, or systemically with 1 μM dexamethasone, an anti-inflammatory reference. After 24 hours of pre-incubation, epidermis were stimulated with 0.5 μg/mL of PMA and incubated again for 24 hours.
Culture subnatants were collected then IL-1 alpha assay was performed.
(§3) The results were statistically analyzed using ANOVA followed by Tukey's test.
as §2, with “μg/ml” for “μg/mL”, “hours. […]” for “hours.”

[3] = system: CXCL1, IL8, IL6, CCL2, SOD2, HAS2, MMP1, MMP3 gene expression in normal human dermal fibroblasts; test: Inflamm'aging model: gene expression in fibroblasts incubated with conditioned media of PMA-stimulated reconstructed epidermis; conditions: Dexa. 1 μM; control = 100
Method: Tea oil concentrate was evaluated in an in vitro model reproducing the process of “inflammaging”: inflammation, represented by the stimulation of IL-1 alpha production, is induced on reconstructed epidermis. The conditioned media of these reconstructed epidermis are then applied to fibroblasts and the expression of dermal markers, altered by IL1a produced by the epidermis, is evaluated.
as §2, with “μg/ml” for “μg/mL”
Culture subnatants were collected, IL-1 alpha assay was performed on the one hand, and on the other hand, these subnatants (conditioned media) were deposited on cultures of normal human dermal fibroblasts.
After 24 hours of incubation of fibroblasts in the presence of conditioned media, the expression of markers of interest was assessed by real-time quantitative PCR.
as §3

[4] = system: cortisol; test: Cortisol produced by skin explants stimulated by ACTH + 42° C. (ELISA); conditions: Metyrapone 1 mM
Method: Skin explants were treated topically with a formulation (cream) containing 1% tea oil concentrate, or its placebo, or treated systemically (in the culture medium) with 0.001% tea oil concentrate and the positive reference metyrapone at 1 mM. The explants were incubated for 24 hours then stressed with 0.6 μM ACTH (Adreno Corticotropic Hormone), a hormone that induces cortisol production. This stress was coupled with explant culture in a 42° C. incubator to potentiate the increase in cortisol production. The explants were again treated with topical products or the active ingredient and the positive reference systemically. After 24 hours of incubation, the culture media were recovered and an ELISA assay for cortisol was performed. The results were statistically analyzed by Student's test t.

[5] = system: dermal matrix markers (Collagen III, Fibrillin 1); test: Gene expression of dermal matrix markers in normal human dermal fibroblasts (real-time PCR); conditions: TGFβ 1 5 ng/ml, 48 hours
Method: The effect of tea oil concentrate on the expression of dermal matrix markers was evaluated in cultured normal human dermal fibroblasts.
Normal human dermal fibroblasts were incubated for 48 hours in the presence of 0.001% and 0.005% tea oil concentrate or 5 ng/ml TGFβ1, the positive reference of the test.
Gene expression of Collagen Ill and Fibrillin 1 was evaluated by quantitative real-time PCR. The results were statistically analyzed by one-way analysis of variance (ANOVA), followed by Dunnett's post-test.

[6] = ACTH 0.6 μM + 42° C., Table 16 (systemic series)

With `C[C@@H]1C[C@H]2[C@@H]3CCC4=CC(=O)C=C[C@]4(C)[C@@]3(F)[C@@H](O)C[C@]2(C)[C@@]1(O)C(=O)CO` [Dexamethasone, dexamethasone] the IL-1 alpha ([1]; 24 h pre-incubation) was 66.6 ± 0.5 pg/mL, the “Protection (%)” value [1] was 74% and the “% Protection” value [2] was 48%. The Interleukin-1 alpha [2] was 334 ± 41 pg/mL, the “CCL2 expression level in relative quantity” value [3] was 193 and the “CXCL1 expression level in relative quantity” value [3] was 1503. For the same compound, the “HAS2 expression level in relative quantity” value [3] was 104, the “IL6 expression level in relative quantity” value [3] was 305 and the “IL8 expression level in relative quantity” value [3] was 1350. The “MMP1 expression level in relative quantity” value [3] was 52, the “MMP3 expression level in relative quantity” value [3] was 74 and the “SOD2 expression level in relative quantity” value [3] was 354.
With `CC(C)(C(=O)c1cccnc1)c1cccnc1` [Metyrapone, metyrapone] the “Cortisol % Protection” value [4, 6] was 70%, the “Cortisol Relative quantification” value [4, 6] was 1.08 ± 0.12 and the “Cortisol Relative quantification” value ([4]; ACTH 0.6 μM + 42° C., Table 17 (topical series)) was 1.08 ± 0.12. The “Cortisol % Protection (vs ACTH/42° C.)” value ([4]; Table 17 (topical series)) was 73%.
With “TGFβ 1: the positive reference of the test” the “Collagen III gene expression (Relative Quantity)” value [5] was 1.55 ± 0.25, the “Fibrillin 1 gene expression (Relative Quantity)” value [5] was 1.53 ± 0.18 and the “Collagen III gene expression % induction” value ([5]; vs control cells) was “+78% p < 0.05”. The “Fibrillin 1 gene expression % induction” value ([5]; vs control cells) was “+74% p < 0.05”.
